Laboratory results as given in PubChem BioAssay AID330 (DTP/NCI, 2004).
Several values for one entry are separate records, joined by “and”; a condition that tells them apart may be missing. Identical values can stand only once. Toxic doses and inconclusive results are not listed.

Tested on: P388 leukemia ip, CD2F1 mice, survival T/C
Experiment: NCI In Vivo Anticancer Drug Screen. Data for tumor model P388 Leukemia (intraperitoneal) in CD2F1 (CDF1) mice
Details: endpoint: median survival time, higher = longer survival
In short: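 Mice carrying the transplanted tumor received test compound or vehicle. Survival was recorded in each group, and the value is the treated-group measurement divided by that of the vehicle-treated control group.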

[1] = dose: 60.0 mg/kg/injection, schedule: Q01DX005 (ip), vehicle: Klucel (hydroxypropylcellulose) (HPC)
[2] = dose: 120.0 mg/kg/injection, schedule: Q01DX005 (ip), vehicle: Klucel (hydroxypropylcellulose) (HPC)
[3] = dose: 50.0 mg/kg/injection, schedule: Q01DX005 (ip), vehicle: saline with Tween-80
[4] = dose: 100.0 mg/kg/injection, schedule: Q01DX005 (ip), vehicle: saline with Tween-80
[5] = dose: 50.0 mg/kg/injection, schedule: Q01DX009 (ip), vehicle: saline with Tween-80
[6] = dose: 50.0 mg/kg/injection, schedule: Q01DX005 (ip), vehicle: Klucel (hydroxypropylcellulose) (HPC)
[7] = dose: 100.0 mg/kg/injection, schedule: Q01DX005 (ip), vehicle: Klucel (hydroxypropylcellulose) (HPC)
[8] = dose: 100.0 mg/kg/injection, schedule: Q01DX009 (ip), vehicle: saline with Tween-80
[9] = dose: 200.0 mg/kg/injection, schedule: Q01DX009 (ip), vehicle: saline with Tween-80

With Cc1cc2c(cc1C)NC1=C(N2)OC(c2ccccc2C)C1=O (configuration not stated) the T/C [1] was 96 % of control and the T/C [2] was 106 % of control.
In the case of C=CCc1cccc2cc(C(=O)OCCCN(CC)CC)c(=O)oc12, the T/C [3] is reported as 95 % of control and the T/C [4] is reported as 99 % of control.
For NC(=S)N=Nc1c(O)n(CCCO)c2ccccc12, the T/C [1] was 93 % of control and the T/C [2] was 100 % of control.
For O=C1OC2(CCCCC2)OC(=O)C1=C/C=C/c1ccc([N+](=O)[O-])o1, the T/C (dose: 3.13 mg/kg/injection, schedule: Q01DX009 (ip), vehicle: saline with Tween-80) was 93 % of control, the T/C (dose: 6.25 mg/kg/injection, schedule: Q01DX009 (ip), vehicle: saline with Tween-80) was 88 % of control and the T/C (dose: 12.5 mg/kg/injection, schedule: Q01DX009 (ip), vehicle: saline with Tween-80) was 102 % of control. For the same compound, the T/C (dose: 25.0 mg/kg/injection, schedule: Q01DX009 (ip), vehicle: saline with Tween-80) was 102 % of control and the T/C [5] was 100 % of control.
In the case of CC[n+]1ccc(Nc2ccc(/C=C/c3ccc4cc(Nc5cc[n+](CC)cc5)ccc4[n+]3CC)cc2)cc1, the T/C (dose: 3.3 mg/kg/injection, schedule: Q04DX003 (ip), vehicle: saline sonified) is reported as 113 % of control.
Cc1nnc(Cl)c(C#N)c1C was tested, and the T/C [6] was 104 % of control, the T/C [7] was 92 % of control and the T/C (dose: 200.0 mg/kg/injection, schedule: Q01DX005 (ip), vehicle: Klucel (hydroxypropylcellulose) (HPC)) was 95 % of control.
In the case of COc1ccc(/C=C2/C(=O)ON=C2C)cc1, the T/C (dose: 60.0 mg/kg/injection, schedule: Q01DX005 (ip), vehicle: saline with Tween-80) is reported as 108 % of control, the T/C (dose: 120.0 mg/kg/injection, schedule: Q01DX005 (ip), vehicle: saline with Tween-80) is reported as 110 % of control and the T/C (dose: 240.0 mg/kg/injection, schedule: Q01DX005 (ip), vehicle: saline with Tween-80) is reported as 109 % of control.
In the case of C1=CC(=C(c2ccccc2)c2ccccc2)C=C1, the T/C (dose: 50.0 mg/kg/injection, schedule: Q01DX009 (ip), vehicle: Klucel (hydroxypropylcellulose) (HPC)) is reported as 98 % of control, the T/C [5] is reported as 107 % of control and the T/C (dose: 100.0 mg/kg/injection, schedule: Q01DX009 (ip), vehicle: Klucel (hydroxypropylcellulose) (HPC)) is reported as 100 % of control. For the same compound, the T/C [8] was 104 % of control, the T/C (dose: 200.0 mg/kg/injection, schedule: Q01DX009 (ip), vehicle: Klucel (hydroxypropylcellulose) (HPC)) was 101 % of control and the T/C [9] was 102 % of control. The T/C (dose: 400.0 mg/kg/injection, schedule: Q01DX009 (ip), vehicle: saline with Tween-80) was 102 % of control.
With Clc1cccc(Cl)c1C(Nc1cnccn1)Nc1cnccn1 the T/C (dose: 25.0 mg/kg/injection, schedule: Q01DX005 (ip), vehicle: Klucel (hydroxypropylcellulose) (HPC)) was 101 % of control and 104 % of control, the T/C [6] was 101 % of control (2×) and 116 % of control and the T/C [7] was 106 % of control and 113 % of control.
In the case of C=C1CC2(CCS(=O)(=O)c3ccccc32)OC1=O (configuration not stated), the T/C (dose: 12.5 mg/kg/injection, schedule: Q04DX002 (ip), vehicle: saline with Tween-80) is reported as 105 % of control, the T/C (dose: 25.0 mg/kg/injection, schedule: Q04DX002 (ip), vehicle: saline with Tween-80) is reported as 109 % of control and the T/C (dose: 50.0 mg/kg/injection, schedule: Q04DX002 (ip), vehicle: saline with Tween-80) is reported as 116 % of control.
In the case of CN(C)C1C(=O)C(C(=O)NCNC2C(=O)N3C2SC(C)(C)C3C(=O)O)=C(O)C2(O)C(=O)C3=C(O)c4c(O)cccc4C(C)(O)C3CC12 (configuration not stated), the T/C [3] is reported as 100 % of control, the T/C [4] is reported as 104 % of control and the T/C (dose: 200.0 mg/kg/injection, schedule: Q01DX005 (ip), vehicle: saline with Tween-80) is reported as 90 % of control.
With COc1cccc2c1C(=O)c1c(O)c3c(c(O)c1C2=O)C[C@@](O)(C(=O)CSc1nnc(C)s1)C[C@@H]3OC1CC(N)C(O)C(C)O1 (some centres not stated) the T/C (dose: 6.25 mg/kg/injection, schedule: Q01DX009 (ip), vehicle: water) was 154 % of control and the T/C (dose: 12.5 mg/kg/injection, schedule: Q01DX009 (ip), vehicle: water) was 155 % of control and 158 % of control.
C=C(C)C(C(=O)OCC)C(=O)OCC was tested, and the T/C [5] was 101 % of control, the T/C [8] was 107 % of control and the T/C [9] was 110 % of control.
In the case of COC(=O)CC1=NNC(=O)C1, the T/C (dose: 100.0 mg/kg/injection, schedule: Q01DX001 (ip), vehicle: Klucel (hydroxypropylcellulose) (HPC)) is reported as 93 % of control, the T/C (dose: 200.0 mg/kg/injection, schedule: Q01DX001 (ip), vehicle: Klucel (hydroxypropylcellulose) (HPC)) is reported as 99 % of control and the T/C (dose: 400.0 mg/kg/injection, schedule: Q01DX001 (ip), vehicle: Klucel (hydroxypropylcellulose) (HPC)) is reported as 100 % of control.
